Measurements reported in publication PMC3324652 (2012).

Molecular target: cannabinoid receptor type 2 (CB2) (Homo sapiens, UniProt P34972)
Test: radioligand saturation binding

Chain of cannabinoid receptor type 2 (CB2) (P34972 whole entry): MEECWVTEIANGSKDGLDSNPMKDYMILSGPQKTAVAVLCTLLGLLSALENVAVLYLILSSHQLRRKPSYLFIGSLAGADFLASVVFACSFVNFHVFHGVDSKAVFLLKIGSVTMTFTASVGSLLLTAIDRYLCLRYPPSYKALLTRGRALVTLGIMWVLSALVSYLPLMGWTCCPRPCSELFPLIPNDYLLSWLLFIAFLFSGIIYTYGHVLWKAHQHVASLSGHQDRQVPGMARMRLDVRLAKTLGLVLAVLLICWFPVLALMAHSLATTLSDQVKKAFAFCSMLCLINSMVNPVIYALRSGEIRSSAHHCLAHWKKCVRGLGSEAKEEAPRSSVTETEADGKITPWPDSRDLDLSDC

## CCCCOc1c(OC)ccc2cc(C(=O)NCc3ccc(F)cc3)c(=O)[nH]c12 [[18F]-14, 7-methoxy-8-butoxy-2-oxo-1,2-dihydroquinoline-3-carboxylic acid-(4-fluorobenzyl)amide]
  Kd: 3.4 nM
